Data published in patent US12649744B2, “N-(pyridin-2-yl)-6,7,8,9-tetrahydro-5h-5,8-epiminocyclohepta[c]pyridine-10-carboxamide derivatives and similar compounds as GPR65 modulators for the treatment of cancer” (PATHIOS THERAPEUTICS LIMITED, priority 2020, dated 2026).

Target: human recombinant GPR65 (Homo sapiens, UniProt Q8IYL9)
Assay: Human GPR65 cAMP HTRF antagonist assay
Assay type: cell-based
Conditions: 1321N1-hrGPR65 cells, assay pH of 7.2, cAMP HTRF; read-out: hGPR65 IC50
Excerpt: The “Human GPR65 cyclic adenosine monophosphate (cAMP) Homogeneous Time Resolved Fluorescence (HTRF) antagonist assay”, or simply “cAMP assay”, as described below, can be used to measure the potency of GPR65 modulators, which is expressed as the concentration of compound required to reduce the increase in cAMP concentration upon GPR65 activation by 50% (i.e. an IC50).
Human GPR65 Cyclic Adenosine Monophosphate (cAMP) Homogeneous Time Resolved Fluorescence (HTRF) Antagonist Assay Procedure
IC50 data was obtained by the following procedure:
1321N1 human astrocytoma cells stably expressing human recombinant GPR65 (1321N1-hrGPR65 cells, EuroscreenFast) were cultured according to the vendor's instructions.
Compounds were tested for their ability to antagonise GPR65, through measuring the concentration of cytoplasmic cAMP following treatment of the cells at a pH of 7.2 to activate GPR65 signalling and addition of the compound to be tested. The extent to which the expected rise in cAMP concentration upon GPR65 activation was suppressed by the added compound is indicative of its potency. The assay was carried out according to EuroscreenFast assay methodology as follows.
On the day of the assay, test compounds were added to 384-well, low volume, white microtiter plates by acoustic dispensing. KRH buffer (5 mM KCl, 1.25 mM MgSO4, 124 mM NaCl, 25 mM HEPES, 13.3 mM Glucose, 1.25 mM KH2PO4 and 1.45 mM CaCl2) was adjusted to pH 6.5, pH 7.6 and pH 8.4 by adding NaOH. 1321N1-hGPR65 cells were rapidly thawed and diluted in KRH, pH 7.6 prior to centrifugation at 300×g for 5 min and resuspension in assay buffer (KRH, pH 7.6, supplemented with 1 mM 3-isobutyl-1-methylxanthine (IBMX) and 200 μM ethylenediaminetetraacetic acid (EDTA)). Cells were added to assay plates at a density of 2,000 cells per well in a volume of 5 μl. Assay plates were briefly centrifuged at 100×g and then incubated at room temperature for 30 min. Cells were stimulated by the addition of 5 μL KRH, pH 6.5, to achieve an assay pH of 7.2, while control wells received 5 μl KRH, pH 8.4 to achieve an assay pH of 7.9. Assay plates were briefly centrifuged at 100×g and then incubated at room temperature for 30 min.
Accumulation of cAMP was detected by cAMP HTRF kit (Cisbio). d2-labeled cAMP and cryptate-labeled anti-cAMP antibody in Lysis and Detection Buffer (Cisbio) were added to assay plates, and the plates were incubated at room temperature for 1 h. HTRF measurements were performed using a Pherastar FSX instrument. Acceptor and donor emission signals were measured at 665 nm and 620 nm, respectively, and HTRF ratios were calculated as signal665 nm/signal620nm×10^4. Data were normalised to high and low control values and fitted with 4-parameter logistic regression to determine hGPR65 IC50 values for the test compounds, which are shown in Table 1.

Sequence of human recombinant GPR65 (Q8IYL9 whole entry): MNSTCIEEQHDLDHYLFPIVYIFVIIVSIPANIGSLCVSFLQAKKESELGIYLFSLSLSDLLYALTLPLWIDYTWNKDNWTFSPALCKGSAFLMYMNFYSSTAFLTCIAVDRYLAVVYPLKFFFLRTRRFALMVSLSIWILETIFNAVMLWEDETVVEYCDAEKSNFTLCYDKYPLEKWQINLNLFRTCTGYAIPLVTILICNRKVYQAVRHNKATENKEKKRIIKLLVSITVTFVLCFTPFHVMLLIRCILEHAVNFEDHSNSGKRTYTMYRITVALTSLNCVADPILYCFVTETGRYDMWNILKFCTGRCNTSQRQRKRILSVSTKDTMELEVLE

Row | SMILES | IC50
1 | O=C(Nc1cnc(-c2ccccc2)s1)N1[C@H]2CC[C@@H]1c1ccnc(F)c1C2 [Compound 29, (5R,8S)-1-Fluoro-N-(2-phenylthiazol-5-yl)-6,7,8,9-tetrahydro-5H-5,8-epiminocyclohepta[c]pyridine-10-carboxamide] | < 500 nM
2 | O=C(Nc1nc(Cl)c(Cl)s1)N1[C@H]2CC[C@@H]1c1ccnc(F)c1C2 [Compound 30, (5R,8S)-N-(4,5-Dichlorothiazol-2-yl)-1-fluoro-6,7,8,9-tetrahydro-5H-5,8-epiminocyclohepta[c]pyridine-10-carboxamide] | < 500 nM
3 | O=C(Nc1nnc(C2CC2)s1)N1[C@H]2CC[C@@H]1c1ccnc(F)c1C2 [Compound 31, (5R,8S)-N-(5-Cyclopropyl-1,3,4-thiadiazol-2-yl)-1-fluoro-6,7,8,9-tetrahydro-5H-5,8-epiminocyclohepta[c]pyridine-10-carboxamide] | 500 to 5000 nM
4 | O=C(Nc1nnc(C2CCOCC2)s1)N1[C@H]2CC[C@@H]1c1ccnc(F)c1C2 [Compound 32, (5R,8S)-1-Fluoro-N-(5-(tetrahydro-2H-pyran-4-yl)-1,3,4-thiadiazol-2-yl)-6,7,8,9-tetrahydro-5H-5,8-epiminocyclohepta[c]pyridine-10-carboxamide] | > 5000 nM
5 | O=C(Nc1nnc(-c2ccccc2)s1)N1[C@H]2CC[C@@H]1c1ccnc(F)c1C2 [Compound 33, (5R,8S)-1-Fluoro-N-(5-phenyl-1,3,4-thiadiazol-2-yl)-6,7,8,9-tetrahydro-5H-5,8-epiminocyclohepta[c]pyridine-10-carboxamide] | < 500 nM
6 | Cn1nc(NC(=O)N2[C@H]3CC[C@@H]2c2ccnc(F)c2C3)c2ccccc21 [Compound 34, (5R,8S)-1-Fluoro-N-(1-methyl-1H-indazol-3-yl)-6,7,8,9-tetrahydro-5H-5,8-epiminocyclohepta[c]pyridine-10-carboxamide] | > 5000 nM
7 | O=C(Nc1ccc2nonc2c1)N1[C@H]2CC[C@@H]1c1ccnc(F)c1C2 [Compound 35, (5R,8S)-N-(Benzo[c][1,2,5]oxadiazol-5-yl)-1-fluoro-6,7,8,9-tetrahydro-5H-5,8-epiminocyclohepta[c]pyridine-10-carboxamide] | 500 to 5000 nM
8 | O=C(Nc1cc(C(F)(F)F)on1)N1[C@H]2CC[C@@H]1c1ccnc(F)c1C2 [Compound 36, (5R,8S)-1-Fluoro-N-(5-(trifluoromethyl)isoxazol-3-yl)-6,7,8,9-tetrahydro-5H-5,8-epiminocyclohepta[c]pyridine-10-carboxamide] | < 500 nM
9 | N#Cc1ccc(NC(=O)N2[C@H]3CC[C@@H]2c2ccnc(F)c2C3)nc1C(F)(F)F [Compound 37, (5R,8S)-N-(5-Cyano-6-(trifluoromethyl)pyridin-2-yl)-1-fluoro-6,7,8,9-tetrahydro-5H-5,8-epiminocyclohepta[c]pyridine-10-carboxamide] | 500 to 5000 nM
10 | N#Cc1cnc(NC(=O)N2[C@H]3CC[C@@H]2c2ccnc(F)c2C3)c(C(F)(F)F)c1 [Compound 38, (5R,8S)-N-(5-Cyano-3-(trifluoromethyl)pyridin-2-yl)-1-fluoro-6,7,8,9-tetrahydro-5H-5,8-epiminocyclohepta[c]pyridine-10-carboxamide] | < 500 nM
11 | O=C(Nc1ccc(OC(F)F)cn1)N1[C@H]2CC[C@@H]1c1ccnc(F)c1C2 [Compound 39, (5R,8S)-N-(5-(Difluoromethoxy)pyridin-2-yl)-1-fluoro-6,7,8,9-tetrahydro-5H-5,8-epiminocyclohepta[c]pyridine-10-carboxamide] | 500 to 5000 nM
12 | O=C(Nc1ccc(OC(F)(F)F)cn1)N1[C@H]2CC[C@@H]1c1ccnc(F)c1C2 [Compound 40, (5R,8S)-1-Fluoro-N-(5-(trifluoromethoxy)pyridin-2-yl)-6,7,8,9-tetrahydro-5H-5,8-epiminocyclohepta[c]pyridine-10-carboxamide] | < 500 nM
13 | N#Cc1ccc(NC(=O)N2[C@H]3CC[C@@H]2c2ccnc(F)c2C3)nc1 [Compound 41, (5R,8S)-N-(5-Cyanopyridin-2-yl)-1-fluoro-6,7,8,9-tetrahydro-5H-5,8-epiminocyclohepta[c]pyridine-10-carboxamide] | 500 to 5000 nM
